Laboratory results published in patent publication US10463592B2, “Peptide with anti-aging effect and use thereof” (Osaka University, priority 2013, dated 2019).
Where no end group is shown, it is not given here.

Columns and labels:
[1] = tested on: CD86 expression in THP-1; assay: h-CLAT assay, CD86 expression; type: cell-based, human; conditions: positive if RFI of CD86>150, FIG. 2
Description: Into a 75-cm^2 flask was placed 50 mL of a suspension of the human monocytic cell line THP-1 (JCRB accession number: JCRB0112) at a density of 2.0×10^5 cells/mL in RPMI 1640 culture medium containing 10% FBS and 0.05 mM mercaptoethanol. The cells were precultured for 48 hours. The precultured THP-1 cells were harvested by centrifugation and suspended at 2.0×10^6 cells/mL in RPMI 1640 culture medium containing 10% FBS and 0.05 mM mercaptoethanol. To each well of 24-well plates, 500 μL of the cell suspension was seeded. To each well containing the seeded cell suspension, 500 μL of each peptide in the same culture medium was added. After 24 hours of incubation, the cells were harvested by centrifugation and were washed twice with PBS containing 0.1% BSA (FACS buffer). The cells were then suspended in 600 μL of FACS buffer containing a 0.01% human γ-globulin solution (Sigma, G2388) and incubated at 4° C. for 10 minutes to block the Fc receptor. The cell suspension was then split into three 180-μL aliquots for conducting an antibody reaction. The aliquots were each transferred to a 1.5-mL tube and centrifuged to give a pellet. To each pellet was added 50 μL of each of solutions of three different FITC-conjugated antibodies, i.e., FITC-conjugated CD86 antibody (Pharmingen; Cat #555657), FITC-conjugated CD54 antibody (Dako; Cat #F7143) and FITC-conjugated isotype control (Mouse IgG) antibody (Dako; Cat #X0927), that were adjusted to an appropriate concentration with FACS buffer. The mixture was incubated at 4° C. for 30 minutes. After the incubation, the cells were harvested by centrifugation and washed twice with FACS buffer. The cells were harvested by centrifugation and suspended in 200 μL of FACS buffer containing 0.625 μg/mL propidium iodide. Then, 1×10^4 living cells were analyzed by flow cytometry to determine the expression levels of the cell surface antigens. No gating on forward or side scatter was used. The relative fluorescence intensities (RFIs) were calculated from the mean of the measured fluorescence intensities (MFIs) in accordance with the following equation.
(§1) From the survival rates and the RFI values of CD86 and CD54 expressions, the sensitization potentials were evaluated. The sensitization potentials of the test samples were determined to be positive when the RFIs of the antigen expressions in the sample treatment groups satisfy the following equations: the RFI of CD86>150, and the RFI of CD54>200. (2) Results

[2] = tested on: CD54 expression in THP-1; assay: h-CLAT assay, CD54 expression; type: cell-based, human; conditions: positive if RFI of CD54>200; FIG. 3
Description: (§2) Into a 75-cm^2 flask was placed 50 mL of a suspension of the human monocytic cell line THP-1 (JCRB accession number: JCRB0112) at a density of 2.0×10^5 cells/mL in RPMI 1640 culture medium containing 10% FBS and 0.05 mM mercaptoethanol. The cells were precultured for 48 hours. The precultured THP-1 cells were harvested by centrifugation and suspended at 2.0×10^6 cells/mL in RPMI 1640 culture medium containing 10% FBS and 0.05 mM mercaptoethanol. To each well of 24-well plates, 500 μL of the cell suspension was seeded. To each well containing the seeded cell suspension, 500 μL of each peptide in the same culture medium was added. […] Then, 1×10^4 living cells were analyzed by flow cytometry to determine the expression levels of the cell surface antigens. […] The relative fluorescence intensities (RFIs) were calculated from the mean of the measured fluorescence intensities (MFIs) in accordance with the following equation.
as §1, with “(2) Results” left out

[3] = tested on: human monocytic cell line THP-1; assay: Sensitization test by the h-CLAT assay (overall evaluation); type: cell-based; conditions: even at high concentrations; positive if RFI of CD86>150 and RFI of CD54>200; 24 hours
Description: as §2
as §1, with “(2) Results” left out

Row | Molecule | sensitization potential for CD86 expression ([1]; at high concentrations) | sensitization potential for CD86 expression ([1]; at low concentrations) | sensitization potential for CD54 expression [2] | sensitization potential [3]
1 | CC[C@H](C)[C@H](NC(=O)[C@H](CCCCN)NC(=O)[C@H](CCC(=O)O)NC(=O)[C@H](CCCCN)NC(=O)[C@H](CO)NC(=O)[C@H](CCCCN)NC(=O)[C@H](CCCNC(=N)N)NC(=O)[C@H](Cc1ccccc1)NC(=O)[C@H](Cc1ccccc1)NC(=O)[C@H](CC(=O)O)NC(=O)CNC(=O)[C@H](CC(C)C)NC(=O)[C@@H](N)CC(C)C)C(=O)NCC(=O)N[C@@H](CCCCN)C(=O)N[C@@H](CCC(=O)O)C(=O)N[C@@H](Cc1ccccc1)C(=O)N[C@@H](CCCCN)C(=O)N[C@@H](CCCNC(=N)N)C(=O)N[C@H](C(=O)N[C@H](C(=O)N[C@@H](CCC(N)=O)C(=O)N[C@@H](CCCNC(=N)N)C(=O)N[C@H](C(=O)N[C@@H](CCCCN)C(=O)N[C@@H](CC(=O)O)C(=O)N[C@@H](Cc1ccccc1)C(=O)N[C@@H](CC(C)C)C(=O)N[C@@H](CCCNC(=N)N)C(=O)N[C@@H](CC(N)=O)C(=O)N[C@@H](CC(C)C)C(=O)N[C@H](C(=O)N1CCC[C@H]1C(=O)N[C@@H](CCCNC(=N)N)C(=O)N[C@H](C(=O)N[C@@H](CCC(=O)O)C(=O)N[C@@H](CO)C(=O)O)[C@@H](C)O)C(C)C)[C@@H](C)CC)C(C)C)[C@@H](C)CC [LL-37] | positive | negative | negative | –
2 | Ac-IFLHR-NH2 [OSK-6, IFLHR] | – | – | – | negative
3 | GIGKFLHSAKKFGKAFVGEIMNS [magainin] | positive | negative | negative | –
